In patent US20240287052A1, “NOVEL OXAZOLE DERIVATIVE AND PHARMACEUTICAL COMPOSITION FOR PREVENTING OR TREATING ALLERGIC DISEASES COMPRISING THE SAME” (AZCURIS CO., LTD., priority 2021, published 2024) one finds inhibition data, which are given here for 27 molecules.

One experiment deals with T1, IL33 and ST2 binding (Homo sapiens, UniProt O95760).
T1 sequence (O95760 112-270 limits assumed): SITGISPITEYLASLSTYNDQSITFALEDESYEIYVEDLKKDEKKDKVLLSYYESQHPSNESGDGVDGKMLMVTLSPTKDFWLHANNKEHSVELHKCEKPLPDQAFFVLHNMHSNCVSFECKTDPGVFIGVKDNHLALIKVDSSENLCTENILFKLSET

Experiment [1] deals with IL-6 secretion in the human mast cell line HMC 1.1. The experiment can be described thus: IL-6 production inhibition assay (IL-33 stimulated HMC 1.1 cells, IL-6 ELISA). The class given is cell-based. Particulars: 24 hours; for inhibition at 1 µM: 1 μM compound, read-out: Inhibition of hIL-6 production (%) 1 μM; for inhibition at 10 µM: 10 μM compound, read-out: Inhibition of hIL-6 production (%) 10 μM. Here is the method:
Human mast cell line HMC 1.1 cells were cultured in medium (Iscove's Modified Dulbecco's Medium, IMDM, HyClone) supplemented with […] fetal bovine serum (FBS, HyClone) and 1% antibiotics and maintained at 37° C. with 5% CO2.
HMC 1.1 cells, which are non-adherent cells, were cultured in 0.5 mL of culture medium containing 200 nM of IL-33 wild type human recombinant protein after centrifugation of cells in culture flasks filled to […] capacity and incubated for 24 hours with […], 10 μM, 25 μM, 30 μM or 50 μM of Example compound.
Medium was harvested by centrifugation (2,000×g, 5 min) and stored at −80° C. until ELISA assay.
Experiments were performed according to the protocol using the Human IL-6 ELISA kit (abCam).
The average of the three values obtained in triplicate was calculated and the amount of IL-6 secretion was measured using a standard curve. The measured IL-6 secretion was converted to 100% based on the vehicle treatment sample value to obtain the vehicle %.
Background: ELISA stands for enzyme-linked immunosorbent assay.

What is called inhibition is the drop in the measured response relative to a control, in per cent.

Like-named read-outs stand apart in the source and are kept apart here.

Consider `CN(C)CCNC(=O)c1nc(-c2ccc3ccccc3c2)oc1-c1ccccc1[N+](=O)[O-]` [Compound 259, N-(2-(Dimethylamino)ethyl)-2-(naphthalen-2-yl)-5-(2-nitrophenyl)oxazole-4-carboxamide], for which the inhibition at IL33 and ST2 binding (30 µM) is 6%; at IL33 and ST2 binding (100 µM), 1%.
The matching figures for `CN1CCN(CCNC(=O)c2nc(-c3ccc4ccccc4c3)oc2-c2ccccc2[N+](=O)[O-])CC1` [Compound 260, N-(2-(4-Methylpiperazin-1-yl)ethyl)-2-(naphthalen-2-yl)-5-(2-nitrophenyl)oxazole-4-carboxamide]: 9% and 23%.
The matching figures for `CN(C)CCNC(=O)c1nc(-c2ccc(N(C)C)cc2)oc1-c1ccccc1` [Compound 261, N-(2-(Dimethylamino)ethyl)-2-(4-(dimethylamino)phenyl)-5-phenyloxazole-4-carboxamide]: 3% and 8%.
`CN1CCN(CCNC(=O)c2nc(-c3ccc(N(C)C)cc3)oc2-c2ccccc2)CC1` [Compound 262, 2-(4-(Dimethylamino)phenyl)-N-(2-(4-methylpiperazin-1-yl)ethyl)-5-phenyloxazole-4-carboxamide]: the inhibition at IL33 and ST2 binding (30 µM) turned out to be 14%; on IL33 and ST2 binding (100 µM) it was 33%.
Turning to `CN(C)CCNC(=O)c1nc(-c2ccc(N(C)C)cc2)oc1-c1ccccc1[N+](=O)[O-]` [Compound 263, N-(2-(Dimethylamino)ethyl)-2-(4-(dimethylamino)phenyl)-5-(2-nitrophenyl)oxazole-4-carboxamide], the inhibition at IL33 and ST2 binding (30 µM) was -35%; at IL33 and ST2 binding (100 µM), -10%.
As to `CN1CCN(CCNC(=O)c2nc(-c3ccc(N(C)C)cc3)oc2-c2ccccc2[N+](=O)[O-])CC1` [Compound 264, 2-(4-(Dimethylamino)phenyl)-N-(2-(4-methylpiperazin-1-yl)ethyl)-5-(2-nitrophenyl)oxazole-4-carboxamide], the inhibition amounted to 29% on IL33 and ST2 binding (30 µM); 35% on IL33 and ST2 binding (100 µM).
`CN(C)CCNC(=O)c1nc(-c2ccc(C(C)(C)C)cc2)oc1-c1ccccc1` [Compound 265, 2-(4-(tert-Butyl)phenyl)-N-(2-(dimethylamino)ethyl)-5-phenyloxazole-4-carboxamide]: the inhibition on IL33 and ST2 binding (30 µM) turned out to be 5%; at IL33 and ST2 binding (100 µM) it was 14%.
`CN1CCN(CCNC(=O)c2nc(-c3ccc(C(C)(C)C)cc3)oc2-c2ccccc2)CC1` [Compound 266, 2-(4-(tert-butyl)phenyl)-N-(2-(4-methylpiperazin-1-yl)ethyl)-5-phenyloxazole-4-carboxamide]: the inhibition on IL33 and ST2 binding (30 µM) was -29%; on IL33 and ST2 binding (100 µM), 10%.
Take `CCN(CC)CCNC(=O)c1nc(-c2ccc(C(C)(C)C)cc2)oc1-c1ccccc1` [Compound 267, 2-(4-(tert-butyl)phenyl)-N-(2-(diethylamino)ethyl)-5-phenyloxazole-4-carboxamide]: the inhibition at IL33 and ST2 binding (30 µM) turned out to be 23%; at IL33 and ST2 binding (100 µM), 29%.
Regarding `CN(C)CCNC(=O)c1nc(-c2ccc(C(C)(C)C)cc2)oc1-c1ccccc1[N+](=O)[O-]` [Compound 268, 2-(4-(tert-Butyl)phenyl)-N-(2-(dimethylamino)ethyl)-5-(2-nitrophenyl)oxazole-4-carboxamide], the inhibition at IL33 and ST2 binding (30 µM) is -15%; at IL33 and ST2 binding (100 µM), -6%.
Consider `CN1CCN(CCNC(=O)c2nc(-c3ccc(C(C)(C)C)cc3)oc2-c2ccccc2[N+](=O)[O-])CC1` [Compound 269, 2-(4-(tert-Butyl)phenyl)-N-(2-(4-methylpiperazin-1-yl)ethyl)-5-(2-nitrophenyl)oxazole-4-carboxamide], for which the inhibition at IL33 and ST2 binding (30 µM) amounted to 33%; on IL33 and ST2 binding (100 µM), 44%.
In the case of `CCN(CC)CCNC(=O)c1nc(-c2ccc(C(C)(C)C)cc2)oc1-c1ccccc1[N+](=O)[O-]` [Compound 270, 2-(4-(tert-Butyl)phenyl)-N-(2-(diethylamino)ethyl)-5-(2-nitrophenyl)oxazole-4-carboxamide], the inhibition on IL33 and ST2 binding (30 µM) amounted to 20%; at IL33 and ST2 binding (100 µM), 37%.
The like results for `CSc1ccc(-c2nc(C(=O)NCCN(C)C)c(-c3ccccc3[N+](=O)[O-])o2)cc1` [Compound 273, N-(2-(Dimethylamino)ethyl)-2-(4-(methylthio)phenyl)-5-(2-nitrophenyl)oxazole-4-carboxamide] were, in that order, -25% and -18%.
Take `CSc1ccc(-c2nc(C(=O)NCCN3CCN(C)CC3)c(-c3ccccc3[N+](=O)[O-])o2)cc1` [Compound 274, N-(2-(4-Methylpiperazin-1-yl)ethyl)-2-(4-(methylthio)phenyl)-5-(2-nitrophenyl)oxazole-4-carboxamide]: the inhibition was 18% on IL33 and ST2 binding (30 µM); 20% on IL33 and ST2 binding (100 µM).
Regarding `CN(C)CCNC(=O)c1nc(-c2ccc([N+](=O)[O-])cc2)oc1-c1ccccc1` [Compound 275, N-(2-(Dimethylamino)ethyl)-2-(4-nitrophenyl)-5-phenyloxazole-4-carboxamide], the inhibition on IL33 and ST2 binding (30 µM) is -16%; on IL33 and ST2 binding (100 µM), -28%.
Consider `CN1CCN(CCNC(=O)c2nc(-c3ccc([N+](=O)[O-])cc3)oc2-c2ccccc2)CC1` [Compound 276, N-(2-(4-Methylpiperazin-1-yl)ethyl)-2-(4-nitrophenyl)-5-phenyloxazole-4-carboxamide], for which the inhibition on IL33 and ST2 binding (30 µM) was 2%; at IL33 and ST2 binding (100 µM), -23%.
Regarding `CN1CCN(CCNC(=O)c2nc(-c3ccc([N+](=O)[O-])cc3)oc2-c2ccccc2[N+](=O)[O-])CC1` [Compound 278, N-(2-(4-Methylpiperazin-1-yl)ethyl)-5-(2-nitrophenyl)-2-(4-nitrophenyl)oxazole-4-carboxamide], the inhibition was 46% at IL33 and ST2 binding (30 µM); 47% on IL33 and ST2 binding (100 µM).
For the molecule `CN(C)CCNC(=O)c1nc(-c2ccc(C3CC3)cc2)oc1-c1ccccc1` [Compound 279, 2-(4-Cyclopropylphenyl)-N-(2-(dimethylamino)ethyl)-5-phenyloxazole-4-carboxamide], the inhibition on IL33 and ST2 binding (30 µM) came out at 16%; at IL33 and ST2 binding (100 µM) it was 4%.
The like results for `CN1CCN(CCNC(=O)c2nc(-c3ccc(C4CC4)cc3)oc2-c2ccccc2)CC1` [Compound 280, 2-(4-Cyclopropylphenyl)-N-(2-(4-Methylpiperazin-1-yl)ethyl)-5-phenyloxazole-4-carboxamide] were, in that order, 2% and 0%.
The matching figures for `O=C(NCCN1CCNCC1)c1nc(-c2ccc(C(F)(F)F)cc2)oc1-c1ccccc1[N+](=O)[O-]` [Compound 281, 5-(2-nitrophenyl)-N-(2-(piperazin-1-yl)ethyl)-2-(4-(trifluoromethyl)phenyl)oxazole-4-carboxamide]: 73% and 71%.
Turning to `O=C(NCCN1CCNCC1)c1nc(-c2cc(F)cc(F)c2)oc1-c1ccccc1[N+](=O)[O-]` [Compound 283, 2-(3,5-Difluorophenyl)-5-(2-nitrophenyl)-N-(2-(piperazin-1-yl)ethyl)oxazole-4-carboxamide], the inhibition at IL33 and ST2 binding (30 µM) turned out to be 31%; on IL33 and ST2 binding (100 µM), 49%.
Turning to `CC(=O)N1CCN(CCNC(=O)c2nc(-c3cc(F)cc(F)c3)oc2-c2ccccc2[N+](=O)[O-])CC1` [Compound 286, N-(2-(4-Acetylpiperazin-1-yl)ethyl)-2-(3,5-difluorophenyl)-5-(2-nitrophenyl)oxazole-4-carboxamide], the inhibition worked out at 18% at IL33 and ST2 binding (30 µM); 33% on IL33 and ST2 binding (100 µM).
Turning to `CS(=O)(=O)N1CCN(CCNC(=O)c2nc(-c3ccc(C(F)(F)F)cc3)oc2-c2ccccc2[N+](=O)[O-])CC1` [Compound 287, N-(2-(4-(methylsulfonyl)piperazin-1-yl)ethyl)-5-(2-nitrophenyl)-2-(4-(trifluoromethyl)phenyl)oxazole-4-carboxamide], the inhibition at IL33 and ST2 binding (30 µM) was determined as 41%; on IL33 and ST2 binding (100 µM), 46%.
As for `CS(=O)(=O)NCCNC(=O)c1nc(-c2ccc(C(F)(F)F)cc2)oc1-c1ccccc1[N+](=O)[O-]` [Compound 288, N-(2-(Methylsulfonamido)ethyl)-5-(2-nitrophenyl)-2-(4-(trifluoromethyl)phenyl)oxazole-4-carboxamide], the inhibition came to 43% at IL33 and ST2 binding (30 µM); 50% at IL33 and ST2 binding (100 µM).
The matching figures for `COCCNC(=O)c1nc(-c2ccc(C(F)(F)F)cc2)oc1-c1cccc(SC)c1` [Compound 293, N-(2-Methoxyethyl)-5-(3-(methylthio)phenyl)-2-(4-(trifluoromethyl)phenyl)oxazole-4-carboxamide]: 40% and 107%.
Regarding `CCCNC(=O)c1nc(-c2ccc(C(F)(F)F)cc2)oc1-c1ccccc1` [Compound 295, 5-Phenyl-N-propyl-2-(4-(trifluoromethyl)phenyl)oxazole-4-carboxamide], in experiment [1], the inhibition at 1 µM amounted to 53% and the inhibition at 10 µM came to 57%.
The matching figures for `CCNC(=O)c1nc(-c2ccc(C(F)(F)F)cc2)oc1-c1ccccc1OC` [Compound 296, N-Ethyl-5-(2-methoxyphenyl)-2-(4-(trifluoromethyl)phenyl)oxazole-4-carboxamide]: 0% and 32%.
